# According to publication PMC11726150, “Pre‐ADMET studies of 5‐(3′,4′‐dihydroxyphenyl)‐γ‐valerolactone, the bioactive intestinal metabolite of proanthocyanidins” (Archiv Der Pharmazie, 2024):
# Key:
# Wt‐MDCK monolayers = assay: In vitro transport study across 5‐day Wt‐MDCK monolayers; type: in vitro ADME, canine; conditions: Wt‐MDCK model, VL 50 μM dosed (VLS formed as metabolite), controls 10 μM, N = 4; for P app A–B (mean ± SD): absorptive direction; for P app B–A (mean ± SD): secretory direction
# Description: (§1) Caco2 cells between passage numbers 42–50 and MDCK cells between passage numbers 21–26 were used for transport studies; the assay was conducted as reported by Volpe^[ [33] ^] with slight modifications. Transport experiments were performed in 12‐well Transwell plates. Caco2 cells were seeded at a density of 60,000 cells/cm^2 and grown for 21 days, with change of media every 3 days, while MDCK cells were seeded at a density of 70,000 cells/cm^2 and grown for 5 days, changing the medium daily. The physiological and morphological formation of a confluent monolayer was evaluated by measuring the TEER value: Caco2 monolayers became confluent 1 week after seeding with TEER values greater than 450 Ω/cm^2, while MDCK monolayers became confluent 24 h after seeding with TEER values greater than 90 Ω/cm^2. Phenol red and serum‐free DMEM/F12 medium was used as transport buffer. For bidirectional transport, VL (50 μM) and control compound (propranolol and paclitaxel, 10 μM) were added to the apical side to determine apical to basolateral transport (A–B; absorptive direction) and to the basal side to determine basolateral to apical transport (B–A; secretory direction). The volume of the apical and basolateral chambers was 0.5 and 1.5 mL, respectively. Aliquots of 120 μL were taken from the basolateral (for A–B transport) or the apical (for B–A transport) chamber at 30, 60, 90, and 120 min. An equal volume was replaced with a transport buffer at every time point. At the beginning and at the end of the experiment, an aliquot was also taken from the apical or basolateral chamber for analysis of the drug. To determine the integrity of monolayers, TEER values were measured before and after the experiment. In addition, at the end of the experiment cells were collected and lysed to evaluate the compound intake. Briefly, cells were washed twice with cold PBS and 200 µL of cold MeOH was added to detach and lysate the cells; subsequently, cells were collected into lo‐bind Eppendorf and sonicated in ice for 10 min, then centrifuged for 15 min at 4°C at 14,000 rpm (Eppendorf Centrifuge 5430 R). The supernatant was collected and used for further analysis.
# (§2) The apparent permeability P app (cm/s) of compounds was calculated from the following equation (Equation 1), while P app (cm/s) of the metabolites was calculated from the equation (Equation 2): (1) Papp=dQ/dt×1/C×1/A.
# (§3) Equation (1) for calculating P app (cm/s) of tested reference compounds. (2) Papp=Metabolic cleareance/A.
# (§4) Equation (2) for calculating P app (cm/s) of compound metabolites.
# (§5) with Metabolic cleareance=Rate of metabolism/C and where dQ/dt is the rate of transport, C is the initial concentration in the donor compartment, and A is the surface area of the filter. To quantify the rate of transport, cumulative amounts of test compounds were plotted against time (min).
# (§6) Efflux ratio was calculated using the following equation (Equation 3)^[ [48] ^]: (3) Efflux ratio=Papp(B−A)/Papp(A−B).
# [1] = as above; type: in vitro ADME, canine; conditions: dog, Wt‐MDCK model, N = 4; for Papp A→B at 120 min: absorptive direction, read-out: P app A–B (mean ± SD); for Papp A→B at 120 min / Papp B→A at 120 min: VL 50 μM dosed (VLS formed as metabolite), controls 10 μM; for Papp B→A at 120 min: secretory direction, read-out: P app B–A (mean ± SD); for efflux ratio at 120 min: Papp(B−A)/Papp(A−B), read-out: Efflux ratio (mean ± SD)
# Description: as §1, §2, §3, §4, §5, §6
# Caco2 monolayers = assay: In vitro transport study across 21‐day Caco2 monolayers; type: in vitro ADME, human; conditions: Caco2 model, VL 50 μM dosed (VLS formed as metabolite), controls 10 μM, N = 4; for P app A–B (mean ± SD): absorptive direction; for P app B–A (mean ± SD): secretory direction
# Description: as §1, §2, §3, §4, §5, §6
# [2] = as above; type: in vitro ADME, human; conditions: human, Caco-2, Caco2 model, N = 4; for Papp A→B at 120 min: absorptive direction, read-out: P app A–B (mean ± SD); for Papp A→B at 120 min / Papp B→A at 120 min: VL 50 μM dosed (VLS formed as metabolite), controls 10 μM; for Papp B→A at 120 min: secretory direction, read-out: P app B–A (mean ± SD); for efflux ratio at 120 min: Papp(B−A)/Papp(A−B), read-out: Efflux ratio (mean ± SD)
# Description: as §1, §2, §3, §4, §5, §6
# P‐gp = assay: Rhodamine‐123 uptake assay, induction (48 h), differentiated Caco2 cells; type: cell-based, human; conditions: 10 µM, 48 h treatment; 0.1% DMSO vehicle control = 100%
# Description: P‐gp modulation was determined in differentiated Caco2 cells by Rh‐123 uptake assay.^[ [49] ^] In brief, cells in the logarithmic growth phase with 70%–80% confluency were harvested and seeded at a density of 2 × 10^4/well of a 96‐well plate. Cells were allowed to grow for 21 days in a CO2 incubator changing the medium every other day.
# After treatment, cells were washed with Hank's buffer and 200 μL of phenol, and serum‐free DMEM/F12 medium containing […] of Rh‐123 was added and cells were incubated for 90 min. The final steps were as described previously.
# PXR = biological target: T1, PXR (Homo sapiens, UniProt O75469); type: cell-based; set-up: expressed in transfected cells; host or cells: HepG2 and LS174T cells, transient electroporation; conditions: HepG2 cells, 10 µM
# T1 sequence (O75469 1-434): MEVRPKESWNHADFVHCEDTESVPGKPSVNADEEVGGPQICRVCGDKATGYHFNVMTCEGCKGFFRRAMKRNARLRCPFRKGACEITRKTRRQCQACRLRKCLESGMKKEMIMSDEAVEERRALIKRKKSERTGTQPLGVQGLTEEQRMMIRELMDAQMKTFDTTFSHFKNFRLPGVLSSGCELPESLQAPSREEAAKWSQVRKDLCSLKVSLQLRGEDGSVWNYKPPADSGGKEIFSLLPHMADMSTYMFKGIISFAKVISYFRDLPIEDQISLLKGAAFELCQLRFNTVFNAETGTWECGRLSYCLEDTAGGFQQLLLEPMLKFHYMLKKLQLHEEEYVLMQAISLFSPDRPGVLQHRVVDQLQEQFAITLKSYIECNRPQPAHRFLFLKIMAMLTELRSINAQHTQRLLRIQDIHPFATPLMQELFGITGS
# Description: The PXR activation potential of VL was determined in transiently transfected HepG2 and LS174T cells as described earlier.^[ [50] ^] In brief, 24‐h‐old cells having 70%−80% confluency were trypsinized and transfected with pSG5‐hPXR (25 μg) and PCR‐5 (25 μg) plasmid DNA by electroporation at 180 V (1 pulse for 70 ms). Cells were incubated at room temperature for 8 min and floating dead cells were carefully removed. Cells were seeded in 96‐well plates at a density of 50,000 cells/well. […] Following 24 h of incubation, the culture medium was aspirated and 40 μL of luciferase reagent (Promega Corporation) was added to each well. Luminescence was measured using a Spectramax M5 plate reader (Molecular Devices) and the fold increase in luciferase activity among sample‐treated cells was calculated in comparison with the vehicle‐treated (DMSO) cells.
# [3] = set-up: method as in earlier work; conditions: healthy subjects, ref 43 (Di Pede et al.), cited from earlier work; for Cmax: human plasma, after PACs intake, read-out: C MAX (mean ± SD) in plasma; for average urinary excretion (% of ingested dose): human urine
# Wt‐MDCK cells = assay: MTT cell viability assay; type: cell-based, canine; conditions: 20 μM, data not shown
# Description: (§7) The effect of test samples on cell viability was measured using an MTT assay. Briefly, exponentially growing 2 × 10^4 cells/200 μL were seeded in 96‐well plates and allowed to grow until reaching their differentiation state. Cells were treated with different concentrations of VL (50–1.6 µM) and positive control camptothecin (30–1 μM) serially diluted in serum‐free medium. After incubation, 10 μL of MTT dye (5 mg/mL stock in PBS) was added to each well, and plates were additionally incubated for 4 h. Further, media were aspirated, and cells were washed with 100 μL of phosphate buffer saline. The formazan blue crystals formed by viable cells were dissolved in 150 μL of DMSO, and the absorbance was measured at 580 nm on a Bio‐Tek, Synergy HT Multi‐Mode, plate reader. The % decrease in viability of sample‐treated cells was calculated compared with vehicle‐treated cells.^[ [46] ^]
# HepG2 cells = assay: MTT cell viability assay; type: cell-based, human; conditions: HepG2, 20 μM, data not shown
# Description: as §7
# Caco2 cells = assay: MTT cell viability assay; type: cell-based, human; conditions: Caco2, 20 μM, data not shown
# Description: as §7
# LS174T cells = assay: MTT cell viability assay; type: cell-based, human; conditions: 20 μM, data not shown
# Description: as §7
structure (smiles),measurement,setting,value
CC(=O)O[C@H]1C(=O)[C@@]2(C)[C@H]([C@H](OC(=O)c3ccccc3)[C@]3(O)C[C@H](OC(=O)[C@H](O)[C@@H](NC(=O)c4ccccc4)c4ccccc4)C(C)=C1C3(C)C)[C@]1(OC(C)=O)CO[C@@H]1C[C@@H]2O [Paclitaxel],P app A–B (mean ± SD),Wt‐MDCK monolayers,5.183 ×10⁻⁶ cm/s
same,P app B–A (mean ± SD),Wt‐MDCK monolayers,2.952 ×10⁻⁶ cm/s
same,Papp A→B at 120 min,[1],5.18 ×10⁻⁶ cm/s
same,Papp B→A at 120 min,[1],2.95 ×10⁻⁶ cm/s
same,efflux ratio at 120 min,[1],0.55 ± 0.089
same,P app A–B (mean ± SD),Caco2 monolayers,1.202 ×10⁻⁶ cm/s
same,P app B–A (mean ± SD),Caco2 monolayers,3.421 ×10⁻⁶ cm/s
same,Papp A→B at 120 min,[2],1.2 ×10⁻⁶ cm/s
same,Papp B→A at 120 min,[2],3.42 ×10⁻⁶ cm/s
same,efflux ratio at 120 min,[2],2.54 ± 2.06
"CO[C@H]1/C=C/O[C@@]2(C)Oc3c(C)c(O)c4c(O)c(c(/C=N/N5CCN(C)CC5)c(O)c4c3C2=O)NC(=O)/C(C)=C\C=C\[C@H](C)[C@H](O)[C@@H](C)[C@@H](O)[C@@H](C)[C@H](OC(C)=O)[C@@H]1C [RIF, rifampicin, reference compound]",intracellular accumulation of Rh‐123,P‐gp,75%
same,PXR activation,PXR,3.4 folds
O=C1CC[C@H](Cc2ccc(O)c(OC3OC(C(=O)O)C(O)C(O)C3O)c2)O1 (stereo partly shown) [4ʹ‐OH‐PVL‐3ʹ‐glucuronide],Cmax,[3],229 ± 345 nM
same,average urinary excretion (% of ingested dose),[3],3.1% ± 3.3%
CC(C)NCC(O)COc1cccc2ccccc12 (stereo not shown) [Propranolol],P app A–B (mean ± SD),Wt‐MDCK monolayers,10.05 ×10⁻⁶ cm/s
same,P app B–A (mean ± SD),Wt‐MDCK monolayers,5.364 ×10⁻⁶ cm/s
same,Papp A→B at 120 min,[1],10.1 ×10⁻⁶ cm/s
same,Papp B→A at 120 min,[1],5.36 ×10⁻⁶ cm/s
same,efflux ratio at 120 min,[1],0.535 ± 0.058
same,P app A–B (mean ± SD),Caco2 monolayers,15.39 ×10⁻⁶ cm/s
same,P app B–A (mean ± SD),Caco2 monolayers,12.96 ×10⁻⁶ cm/s
same,Papp A→B at 120 min,[2],15.4 ×10⁻⁶ cm/s
same,Papp B→A at 120 min,[2],13 ×10⁻⁶ cm/s
same,efflux ratio at 120 min,[2],0.859 ± 0.085
O=C1CC[C@H](Cc2ccc(OS(=O)(=O)O)c(O)c2)O1 [3ʹ‐OH‐PVL‐4ʹ‐sulfate],Cmax,[3],368 ± 156 nM
same,average urinary excretion (% of ingested dose),[3],11.3% ± 14.8%
COc1cccc2c1C(=O)c1c(O)c3c(c(O)c1C2=O)C[C@@](O)(C(=O)CO)C[C@@H]3O[C@H]1C[C@H](N)[C@H](O)[C@H](C)O1 [doxorubicin],effect on cell viability,Wt‐MDCK cells,dramatically reduced the viability
same,effect on cell viability,HepG2 cells,dramatically reduced the viability
same,effect on cell viability,Caco2 cells,dramatically reduced the viability
same,effect on cell viability,LS174T cells,dramatically reduced the viability
CC[C@@]1(O)C(=O)OCc2c1cc1n(c2=O)Cc2cc3ccccc3nc2-1 [camptothecin],effect on cell viability,Wt‐MDCK cells,dramatically reduced the viability
same,effect on cell viability,HepG2 cells,dramatically reduced the viability
same,effect on cell viability,Caco2 cells,dramatically reduced the viability
same,effect on cell viability,LS174T cells,dramatically reduced the viability
